# Measurements published in patent US5906820A, “Epidermal growth factor receptor targeted molecules for treatment of inflammatory arthritis” (priority 1997, dated 1999).
# Test system: A431 cells
# Experiment: Protein synthesis ([3H]leucine incorporation) assay: inhibition of DAB389 EGF cytotoxicity by chloroquine
# Settings: for % of control Protein Synthesis, + Chloroquine: relative to chloroquine treatment alone
compound,measurement,setting,value
"CCN(CC)CCCC(C)Nc1ccnc2cc(Cl)ccc12 (stereo not shown) [Chloroquine, chloroquine]","% of control Protein Synthesis, + Chloroquine","A431 cells, chloroquine 10 μM with DAB389 EGF 1 pm, 20 hr",100%
same,"% of control Protein Synthesis, + Chloroquine","A431 cells, chloroquine 10 μM with DAB389 EGF 10 pm, 20 hr",61%
same,blocking of the cytotoxicity of DAB389 EGF,"A431 cells, chloroquine 10 μM, 20 hr",completely blocked
same,inhibition at 10 µM,"Homo sapiens, A-431, 20 h, read-out: reduction of protein synthesis by chloroquine treatment alone",27%
